Experimental data published in article PMC6843786, “Temporin-SHa and Its Analogs as Potential Candidates for the Treatment of Helicobacter pylori” (Biomolecules, 2019).
Non-standard residues stand in square brackets, D forms with d. Residues, ends and D or L forms follow the SMILES beside them.

Assays:
[1] = tested on: N87 cells; assay: In vitro toxicity assay using human gastric cells (resazurin); type: cell-based
Experimental: [26] Human gastric cells N87 (ATCC CRL-5822) were cultured in RPMI-1640 medium supplemented with 10% fetal calf serum (FCS), 1% L-glutamine and 1% antibiotics (all from Invitrogen, Carlsbad, CA, USA) and were routinely seeded onto 25 cm^2 flasks maintained in a 5% CO2 incubator at 37 °C. For the toxicity assay, cells grown on 25 cm^2 flasks were detached using trypsin–EDTA solution (from Thermofisher), counted using Mallasez counting chamber and seeded into 96-well cell culture plates (Greiner Bio-one) at approximately 10^4 cells per well. The cells were left to grow for 48–72 h at 37 °C in a 5% CO2 incubator until they reached confluence. Plates were then aspirated and increasing concentrations of peptides were added to the cells for 48 h at 37 °C in a 5% CO2 incubator, volume of water corresponding to the volume of peptides being used as negative control. At the end of the incubation, wells were aspirated, and cell viability was evaluated using resazurin-based in vitro toxicity assay kit (Sigma-Aldrich) following manufacturer’s instructions. Briefly, resazurin stock solution was diluted 1:10 in sterile PBS containing calcium and magnesium (PBS^++, pH 7.4) and empty wells were filled with 100 µL of the diluted solution. After 4 h incubation at 37 °C, fluorescence intensity was measured using microplate reader (Synergy Mx, Biotek) with an excitation wavelength of 530 nm and an emission wavelength of 590 nm. The fluorescence values were normalized by the controls and expressed as percent viability.

[2] = tested on: H. pylori (ATCC 43504); assay: Membrane permeabilization assay (propidium iodide); conditions: propidium iodide, CTAB 300 µM = 100%
Experimental: Bacterial membrane permeabilization was evaluated using the cell-impermeable DNA/RNA probe propidium iodide as previously explained. Logarithmic growing bacterial suspension of H. pylori (ATCC 43504) was prepared from overnight bacterial suspension after 1:10 dilution. After 3 h incubation at 37 °C, in microaerophilic condition, bacterial suspensions were centrifuged for 5 min at 3000× g. Cell pellets were then resuspended in sterile PBS at about […]. Propidium iodide (solution at 1 mg/mL, Sigma Aldrich) was then added to the suspension at a final concentration of 60 µM. 100 µL of this suspension were then transferred into 96-well black plates and were exposed to increasing concentrations of peptides obtained by serial dilution (from zero to 100 µM, 1:2 dilution). […] Kinetics of fluorescence variations (excitation at 530 nm and emission at 590 nm) were then recorded over 240 min of incubation at 37 °C in micro-aerobic condition using a microplate reader (Biotek, Synergy Mx). The effect of the peptides on the membrane integrity was expressed in percentage of permeabilization, CTAB at 300 µM being used as positive control giving 100% permeabilization. All experiments were done in triplicate.

CC[C@H](C)[C@H](NC(=O)CNC(=O)[C@H](CO)NC(=O)[C@H](CC(C)C)NC(=O)[C@@H](N)Cc1ccccc1)C(=O)N[C@H](C(=O)NCC(=O)N[C@@H](CCSC)C(=O)N[C@@H](CC(C)C)C(=O)N[C@H](C)C(=O)N[C@@H](CCCCN)C(=O)N[C@@H](CC(C)C)C(=O)N[C@@H](Cc1ccccc1)C(N)=O)C(C)C [NST1, H-Phe^1-Leu^2-Ser^3-Gly^4-Ile^5-Val^6-Gly^7-Met^8-Leu^9-D-Ala^10-Lys^11-Leu^12-Phe^13-NH2] (H-FLSGIVGML[dA]KLF-NH2)
IC50 ([1]; 48 h incubation, resazurin cell viability, read-out: IC50 on N87 Cells): 90.4 ± 10.4 µM
increase in toxicity to human gastric cells compared to temporin-SHa ([1]; from IC50 on N87 cells): ~17 fold
membrane permeabilization of H. pylori (ranking in words) [2]: strongest permeabilization
